{"source": "patent US20090202497A1", "about": "“USE OF GLP-1, GLP-1 DERIVATIVES OR GLP-1 FRAGMENTS FOR SKIN REGENERATION, STIMULATION OF HAIR GROWTH, OR TREATMENT OF DIABETES” (The General Hospital Corporation, priority 2005, published 2009)", "key": {"[1]": {"tested_on": "shaved New Zealand white rabbits", "experiment": "Hair growth after intradermal peptide injection into the backs of shaved rabbits", "assay_type": "in vivo, rabbit", "details": "for hair growth at the sites of injection: 100 μg intradermally in Freund's adjuvant, observed approximately 3-4 weeks after last injection", "method": "0.1 mg (100 μg) of the following peptides were injected intradermally into the backs of the shaved New Zealand white rabbits: synthetic mammalian GLP-1 (1-37), synthetic GLP-1 peptide fragment containing amino acid sequence 16-30 of GLP-1 (1-37) (amino acid numbering starts from histidine 1 of mammalian GLP-1 (1-37), synthetic rat GLP-2 peptide fragment containing amino acid sequence 9-24 of rat GLP-2 (amino acid numbering starts at histidine 1 of the rat GLP-2 sequence), rat IP-2 and synthetic mammalian glucagon. Sequences for rat GLP-2, rat IP-2 and mammalian glucagon are well known in the art, and are provided, for example, in U.S. Pat. No. 6,849,708, which is hereby wholly incorporated by reference (see, e.g., FIG. 1 of U.S. Pat. No. 6,849,708). The total amount of peptide was administered in 10-20 intradermal injections as an emulsification in Freund's adjuvant. Each peptide was tested in four rabbits, except for GLP-1 (1-37) that was injected into 5 rabbits. This amount of peptide was administered at 3 time intervals (100 μg at each time interval), one week apart. […] This effect was not observed in any of the rabbits that were immunized with any other of the above described peptides. […] The inventors observed enhanced hair growth upon intradermal injection of only GLP-1 (1-37) into rabbits."}, "[2]": {"tested_on": "cultured skin-derived cells", "experiment": "cAMP levels in cell extracts after incubation with GLP-1", "assay_type": "cell-based, mouse", "details": "incubation with GLP-1 for 5-30 min; data not shown", "method": "To determine whether GLP-1 receptors are actively coupled to signal transduction pathways in skin-derived cells, GLP-1 was added to the cells and examined for the activation of cell signaling. Three signaling pathways were investigated: Cyclic AMP, calcium influx, and mitogen activated protein kinase phosphorylation (MAPK).\nSince GLP-1Rs are classically recognized to couple to Gs and adenylyl cyclase to generate cAMP cell extracts were assayed for changes in levels of cAMP after their incubation with GLP-1 for 5-30 min."}, "[3]": {"tested_on": "cultured skin-derived cells", "experiment": "cAMP luciferase reporter plasmid transfected into cultured skin-derived cells", "assay_type": "cell-based, mouse", "details": "data not shown"}, "[4]": {"tested_on": "cultured skin-derived cells", "experiment": "fura-2 loading and perforated patch clamp monitoring of membrane potential and current", "assay_type": "cell-based, mouse", "details": "perforated patch clamp; data not shown", "description": "The cells were next loaded with the Ca2+ indicator fura-2, and changes in membrane potential and current were monitored using the perforated patch clamp technique."}, "P42/44 MAPK (ERK1/2)": {"tested_on": "P42/44 MAPK (ERK1/2)", "experiment": "Western immunoblot of ERK1/2 phosphorylation in primary skin cell cultures", "assay_type": "cell-based, mouse", "details": "10 nM GLP-1", "method": "Cultures of C57B6/L mouse skin-derived cells were grown in 100 mm dishes to 80% confluence. Cultures were washed once with PBS and incubated with KRB buffer (115 mM NaCl, 5 mM KCl, 10 mM NaHCO3, 2.5 mM MgCl2, 2.5 mM CaCl2, 20 mM HEPES, pH 7.4) containing 0.5% bovine serum albumin (BSA) and 1 mM glucose at 37° C. for 1 hour. Cultures were then incubated with 10 nM GLP1 in the setting of no (0 mM), low (2.8 mM) or high (16.7 mM) glucose. Proteins were extracted with lysis buffer (50 mM Hepes pH 7.6, 160 mM NaCl, 20 mM sodium pyrophosphate, 20 mM glycerophosphate, 10 mM NaF, 2 mM sodium vanadate, […], and protease inhibitor cocktail). Ten (10) μg of protein per lane was electrophoresed in 4-12% Bis-Tris gels (Invitrogen Corp.) and transferred onto nitrocellulose membranes (Nitrobind, Osmotics, Inc., Minnetonka, Minn.) at 4° C. overnight. Membranes were blocked with 3% BSA in PBS with 0.2% Tween-80 for 1 hour at RT, incubated with mouse monoclonal anti-phospho-P42 MAPK antibody (1:2000 dilution) at 4° C. overnight, washed, and incubated with horseradish peroxidase-conjugated secondary antibody at RT for 1 hour. Immunostained proteins were detected using a the ECL chemiluminescence detection kit (Amersham Biosciences, Ltd., Buckinghamshire, England). […]"}, "mouse skin-derived cells": {"tested_on": "mouse skin-derived cells", "experiment": "Differentiation of cultured skin-derived cells into insulin C-peptide producing cells (immunostaining)", "assay_type": "cell-based", "details": "differentiation media with GLP-1 (10 nM) for 30 days", "method": "For in-vitro differentiation, after passaging for one month, mouse skin-derived cells were freshly plated and overlaid with differentiation medium composed of RPMI1640 containing 1% HEPES, 1% penicillin/streptomycin/fungizone, 1% pyruvate, 2% B-27 supplement, 2% FBS, […] MIN6 cells, provided by J. Miyazaki, were cultured as described (Miyazaki, J. et al., Endocrinology 127:126-32 (1990)).\nFor immunochemistry, 7 μm frozen sections were prepared from newborn C57BL/6 mouse skin, and skin-derived tissue culture cells were grown on coverslips. Tissues/coverslips were fixed with 4% paraformaldehyde at RT for 15 min. They were then rinsed with PBS containing 0.2% Triton X-100 and blocked with 3% normal donkey serum for 1 hour at RT. Tissues/coverslips were incubated with primary antibody at a 1:500 dilution at RT for 1 hour, rinsed with PBS containing 0.2% Triton X-100, and incubated with secondary (donkey) Cy2- or Cy3-conjugated antisera at RT for 1 hour. They were then washed with PBS and mounted with fluorescent mounting medium. […]\nMouse skin was minced and strained, and the resulting cells were used to establish primary cultures of mouse skin-derived cells. […] Immunoreactivity was detected with a Cy-3-conjugated secondary antibody."}}, "data": [{"substance": "GLP-1 peptide fragment containing amino acid sequence 16-30 of GLP-1 (1-37): synthetic GLP-1 peptide fragment containing amino acid sequence 16-30 of GLP-1 (1-37) (VSSYLEGQAAKEFIA; Glucagon-like peptide 1; UniProt P01275 107-121, looked up, fragment)", "values": [{"measurement": "hair growth at the sites of injection", "setting": "[1]; 3 times one week apart", "value": "not observed"}]}, {"substance": "glucagon [mammalian glucagon, reference compound]", "values": [{"measurement": "hair growth at the sites of injection", "setting": "[1]; 3 times one week apart", "value": "not observed"}]}, {"substance": "glucagon-like peptide-1 [GLP-1 (1-37)]", "values": [{"measurement": "hair growth at the sites of injection", "setting": "[1]; 3 times one week apart", "value": "luxurious hair growth was observed only at the sites of injection"}, {"measurement": "rabbits showing hair growth at the sites of injection", "setting": "[1]; 100 μg intradermally, 3 times one week apart, approximately 3-4 weeks after last injection", "value": "4 out of 5"}, {"measurement": "hair growth in repeat experiments", "setting": "[1]; repeat experiments at different seasons of the year", "value": "variable results"}, {"measurement": "changes in levels of cAMP", "setting": "[2]", "value": "No changes in cAMP levels were observed"}, {"measurement": "activation of cAMP luciferase reporter", "setting": "[3]", "value": "failed to activate"}, {"measurement": "membrane current in response to peptide", "setting": "[4]", "value": "No membrane current was detected"}, {"measurement": "phosphorylation of ERK1/2 (time course)", "setting": "P42/44 MAPK (ERK1/2); 0, 5, 15 or 30 minutes, 0, 2.8 or 16.7 mM glucose", "value": "prompt phosphorylation of ERK1/2 after 5 minutes followed by defervescence of phosphorylation at 15 and rephosphorylation at 30 min"}, {"measurement": "glucose dependence of ERK1/2 phosphorylation", "setting": "P42/44 MAPK (ERK1/2); no, 2.8 mM or 16.7 mM glucose", "value": "glucose-dependent"}, {"measurement": "cytoplasmic staining of insulin C-peptide", "setting": "mouse skin-derived cells", "value": "Many of the cells showed cytoplasmic staining of C-peptide"}]}, {"substance": "rat GLP-2 peptide fragment containing amino acid sequence 9-24 of rat GLP-2: synthetic rat GLP-2 peptide fragment, residues 9-24, numbering from histidine 1 of rat GLP-2 (EMNTILDNLATRDFIN; Glucagon-like peptide 2; UniProt P06883 154-169, looked up, fragment) [reference compound]", "values": [{"measurement": "hair growth at the sites of injection", "setting": "[1]; 3 times one week apart", "value": "not observed"}]}]}
